Measurements published in article PMC9696794, “Synthesis and Antimicrobial Activity of Short Analogues of the Marine Antimicrobial Peptide Turgencin A: Effects of SAR Optimizations, Cys-Cys Cyclization and Lipopeptide Modifications” (International Journal of Molecular Sciences, 2022).
Values after ≈ are worked out from the molar mass of the structure shown. Where a SMILES comes first, the peptide text is derived from it. The star is where a group is joined. Lauroyl = CCCCCCCCCCCC(=O)*; Decanoyl = CCCCCCCCCC(=O)*

Tests used:
E. coli (Ec, ATCC 25922) = experiment: microbe, parasite or virus in culture; format: cell-based, Escherichia coli; conditions: for Antimicrobial Activity (MIC) Gram − Ec: ATCC 25922, 24 h
Procedure: (§1) All cyclic and linear peptides were screened for antibacterial activity against four Gram-positive strains: B. subtilis (Bs, ATCC 23857), C. glutamicum (Cg, ATCC 13032), S. aureus (Sa, ATCC 9144) and S. epidermidis RP62A (Se, ATCC 35984), and two Gram-negative strains: E. coli (Ec, ATCC 25922) and P. aeruginosa (Pa, ATCC 27853). The activity was assessed using a broth microdilution assay according to a modified CLSI-based method. Briefly, overnight bacterial cultures were grown in Mueller–Hinton (MH) broth medium (Difco Laboratories, Detroit, MI, USA) for 2 h at room temperature. The optical density (OD600) was measured, and the bacterial suspensions were adjusted to 2.5–3 × 10^4 CFU/mL in MH medium. The bacterial suspension (50 µL) was distributed in 96-well plates (Nunc, Roskilde, Denmark) preloaded with two-fold dilution series (256 to 1 µg/mL) of peptide solutions (50 µL), giving a final well volume of 100 µL. The microplates were incubated in an EnVision 2103 microplate reader (PerkinElmer, Llantrisant, UK) at 35 °C, with OD595 recorded every hour for 24 h. MIC was defined as the lowest concentration of peptides showing an optical density less than 10% of the negative (growth) control, consisting of bacterial suspension and water. Polymyxin B sulfate (Sigma-Aldrich, St. Louis, MO, USA) and chlorhexidine acetate (CHX, Fresenius Kabi, Halden, Norway), both with concentrations ranging from 12.5 to 0.09 μg/mL, served as positive (growth inhibition) controls. All peptides were tested in triplicate.

[1] = test system: E. coli MC4100 (wild type, WT); experiment: microbe, parasite or virus in culture; conditions: Escherichia coli, read-out: MIC E. coli MC4100 (WT)
Procedure: as §1
MIC values were determined for all cyclic peptides against two E. coli strains: wild type (WT) MC4100 and the hyperpermeable variant NR698, having a deficient outer membrane. The NR698 strain, containing lptD4213/imp4213 mutation, was kindly provided by M. Grabowicz (Emory University School of Medicine, Rollins Research Center, Atlanta, GA, USA). The assay was performed in the same way as previously described for the antibacterial MIC assay.

[2] = test system: Gram-negative bacterial strains (E. coli and P. aeruginosa); experiment: Antibacterial MIC assay, Gram-negative strains together (range or geometric mean); format: cell-based; conditions: Table S3; MIC >256 set to 256
Procedure: as §1

[3] = test system: S. aureus (Sa, ATCC 9144); experiment: microbe, parasite or virus in culture; format: cell-based, Staphylococcus aureus; conditions: ATCC 9144, 24 h
Procedure: as §1

Rhodotorula sp. (Rh) = experiment: microbe, parasite or virus in culture; format: cell-based; conditions: 48 h
Procedure: (§2) The synthesized peptides were screened for antifungal activity against the molds A. pullulans (Ap) and Rhodotorula sp. (Rh) (both obtained from Professor Arne Tronsmo, The Norwegian University of Life Sciences, Ås, Norway) and the yeast C. albicans (Ca, ATCC 10231) as previously described. In short, fungal spores were grown in potato dextrose broth media (Difco) containing 2% D(+)-glucose (Merck, Darmstadt, Germany) at 25–30 °C while shaking at 200 rpm overnight. The cultures were diluted with a dextrose media containing glucose to a concentration of approx. 4 × 10^5 spores/mL. Aliquots of the cultures (50 µL) were transferred to 96 well microtiter plates preloaded with the synthetic peptides (50 µL) in two-fold serial dilutions (256 to 1 µg/mL). Polymyxin B and CHX (both with concentrations ranging from 12.5 to 0.09 μg/mL) served as positive antibiotic controls. The microtiter plates containing the fungal spores and the test peptides were incubated at room temperature for 48 h and OD600 was recorded using a Synergy H1 Hybrid microplate reader system (BioTek, Winooski, VT, USA). MIC was defined as the lowest peptide concentration showing an optical density less than 10% of the negative (growth) control. All experiments were performed in triplicate.

A. pullulans (Ap) = experiment: microbe, parasite or virus in culture; format: cell-based, Aurobasidium pollulans; conditions: 48 h
Procedure: as §2

[4] = test system: C. glutamicum (Cg, ATCC 13032); experiment: microbe, parasite or virus in culture; format: cell-based, Corynebacterium glutamicum; conditions: ATCC 13032, 24 h
Procedure: as §1

[5] = test system: Gram-positive bacterial strains; conditions: for GM of MIC G+: Table S3, MIC >256 set to 256
Procedure: as §1

[6] = test system: B. subtilis (Bs, ATCC 23857); experiment: microbe, parasite or virus in culture; format: cell-based, Bacillus subtilis; conditions: ATCC 23857, 24 h
Procedure: as §1

all bacterial strains = experiment: Antibacterial MIC assay, all bacterial strains together (range or geometric mean); format: cell-based; conditions: for GM (geometric mean of the MIC values against all bacterial strains): Table 1, six bacterial strains; for GM of MIC Tot. bact.: Table S3, all bacterial test strains, MIC >256 set to 256
Procedure: The selectivity index (SI) of the peptides towards bacteria over eukaryotic cells was calculated using the geometric mean (GM) of the MIC values against all bacterial test strains, according to the method by Orlov et al.. The SI for each peptide was determined as the ratio of the RBC-EC50 value by the corresponding GM value. Larger SI values indicate greater selectivity for microbial cells. […] In general, the SI was higher against the Gram-positive bacteral strains than the Gram-negative strains. (Table S3). Overall, peptides displaying EC50 < 100 µg/mL were considered too haemolytic to be of interest for further exploration.
as §1

[7] = test system: human red blood cells (RBC); experiment: Haemolytic activity assay; format: cell-based; conditions: for Selectivity index (SI) G- / Selectivity index (SI) G+ / Selectivity index (SI) Fungi: Table S3, highest tested concentration used where EC50 above it; for Selectivity index (SI) G-: EC50/GM of Gram-negative strains; for Selectivity index (SI) G+: EC50/GM of Gram-positive strains; for Selectivity index (SI) Fungi: EC50/GM of fungi; for SI (selectivity index = EC50/GM): haemolytic EC50 over GM of MIC against all bacterial strains, Table 1
Procedure: The synthetized lipopeptides were screened for haemolytic activity against human red blood cells (RBC), in concentrations ranging from 500 to 3.9 μM, following a previously described protocol. In brief, haemolysis was determined using a heparinizied (10 IU/mL) fraction of freshly drawn human blood. A second fraction of blood, which was collected in test tubes containing ethylenediaminetetraacetic acid (EDTA, Vacutest, KIMA, Arzergrande, Italy), was used for determination of the hematocrit (hct). Plasma was removed from heparinized blood by washing three times with prewarmed phosphate-buffered saline (PBS) before being adjusted to a hematocrit of 4%. Peptides dissolved in dimethyl sulfoxide (DMSO) were further diluted with PBS to a final DMSO content of ≤1%. Triton X-100 (Sigma-Aldrich, St. Louis, MO, USA), used at a final concentration of 0.1%, served as a positive control for 100% haemolysis, whereas 1% DMSO in PBS buffer served as a negative control where no toxicity was detected. Duplicates of test solutions and erythrocytes, with 1% hct final concentration, were prepared in a 96-well polypropylene V-bottom plate (Nunc, Fischer scientific, Oslo, Norway). They were incubated under agitation at 37 °C and 800 rpm for 1 h. After centrifugation (5 min, 3000× g), 100 µL from each well were transferred to a flat-bottomed 96-well plate and absorbance was measured at 545 nm with a microplate reader (SpectraMax 190, Molecular Devices, San Jose, CA, USA). After subtracting PBS background, the percentage of haemolysis was calculated as the ratio of the absorbance in the peptide-treated and surfactant-treated samples. Three independent experiments were performed, and EC50 (the concentration giving 50% haemolysis) values are presented as averages.

[8] = test system: P. aeruginosa (Pa, ATCC 27853); experiment: microbe, parasite or virus in culture; format: cell-based, Pseudomonas aeruginosa; conditions: ATCC 27853, 24 h
Procedure: as §1

[9] = test system: C. albicans (Ca, ATCC 10231); experiment: microbe, parasite or virus in culture; format: cell-based, Candida albicans; conditions: ATCC 10231, 48 h
Procedure: as §2

[10] = test system: fungi (A. pullulans, C. albicans, Rhodotorula sp.); experiment: Antifungal MIC assay, all fungi together (range or geometric mean); format: cell-based; conditions: Table S3; MIC >128 set to 128
Procedure: as §2

[11] = test system: S. epidermidis RP62A (Se, ATCC 35984); experiment: microbe, parasite or virus in culture; format: cell-based, Staphylococcus epidermidis; conditions: ATCC 35984, 24 h
Procedure: as §1

CC1(C)S[C@@H]2[C@H](NC(=O)[C@H](N)c3ccccc3)C(=O)N2[C@H]1C(=O)O [Ampicillin, reference compound]
MIC (E. coli (Ec, ATCC 25922); Escherichia coli, ATCC25922, Table 2, laboratory strain, read-out: MIC E. coli ATCC 25922 (from Table 1)): 8 µg/mL (≈ 22.9 µM) | MIC [1]: 8 µg/mL (≈ 22.9 µM)

CCCCCCCCCC(=O)N[C@@H](CS)C(=O)NCC(=O)N[C@@H](CCCCN)C(=O)N[C@@H](CCCCN)C(=O)N[C@@H](Cc1c[nH]c2ccccc12)C(=O)N[C@@H](Cc1c[nH]c2ccccc12)C(=O)NCC(=O)N[C@@H](Cc1c[nH]c2ccccc12)C(=O)N[C@@H](CCCCN)C(=O)N[C@@H](CS)C(=O)N[C@@H](CCCCN)C(=O)N[C@@H](CC(C)C)C(N)=O [Peptide C10-Turg-2, C10- CGKKWWGWKC KL-NH2] (Decanoyl-CGKKWWGWKCKL-NH2)
Antimicrobial Activity (MIC) Gram − Ec (E. coli (Ec, ATCC 25922)): 8 µg/mL | GM of MIC G- [2]: 11 µg/mL | Antimicrobial Activity (MIC) Gram + Sa [3]: 8 µg/mL | Antimicrobial Activity (MIC) Fungi Rh (Rhodotorula sp. (Rh)): 32 µg/mL | Antimicrobial Activity (MIC) Fungi Ap (A. pullulans (Ap)): 32 µg/mL | Antimicrobial Activity (MIC) Gram + Cg [4]: 4 µg/mL | MIC against the Gram-positive bacterial strains ([5]; 2 h): 4 to 8 µg/mL | GM of MIC G+ [5]: 7 µg/mL | Antimicrobial Activity (MIC) Gram + Bs [6]: 8 µg/mL | GM (geometric mean of the MIC values against all bacterial strains) (all bacterial strains): 8 µg/mL | GM of MIC Tot. bact. (all bacterial strains): 8 µg/mL | Selectivity index (SI) G- [7]: 6 | Selectivity index (SI) G+ [7]: 10 | Selectivity index (SI) Fungi [7]: 2 | SI (selectivity index = EC50/GM) [7]: 8 | Antimicrobial Activity (MIC) Gram − Pa [8]: 16 µg/mL | Antimicrobial Activity (MIC) Fungi Ca [9]: 64 µg/mL | GM of MIC Fungi [10]: 40 µg/mL | Antimicrobial Activity (MIC) Gram + Se [11]: 8 µg/mL

CCCCCCCCCCCC(=O)N[C@@H](CS)C(=O)NCC(=O)N[C@@H](CCCCN)C(=O)N[C@@H](CCCCN)C(=O)N1CCC[C@H]1C(=O)NCC(=O)NCC(=O)N[C@@H](Cc1c[nH]c2ccccc12)C(=O)N[C@@H](CCCCN)C(=O)N[C@@H](CS)C(=O)N[C@@H](CCCCN)C(=O)N[C@@H](CC(C)C)C(N)=O [Peptide C12-Turg-1, C12- CGKKPGGWKC KL-NH2] (Lauroyl-CGKKPGGWKCKL-NH2)
Antimicrobial Activity (MIC) Gram − Ec (E. coli (Ec, ATCC 25922)): 8 µg/mL | GM of MIC G- [2]: 11 µg/mL | Antimicrobial Activity (MIC) Gram + Sa [3]: 8 µg/mL | Antimicrobial Activity (MIC) Fungi Rh (Rhodotorula sp. (Rh)): 8 µg/mL | Antimicrobial Activity (MIC) Fungi Ap (A. pullulans (Ap)): 32 µg/mL | Antimicrobial Activity (MIC) Gram + Cg [4]: 4 µg/mL | GM of MIC G+ [5]: 5 µg/mL | Antimicrobial Activity (MIC) Gram + Bs [6]: 4 µg/mL | GM (geometric mean of the MIC values against all bacterial strains) (all bacterial strains): 6 µg/mL | GM of MIC Tot. bact. (all bacterial strains): 6 µg/mL | Selectivity index (SI) G- [7]: > 86 | Selectivity index (SI) G+ [7]: > 204 | Selectivity index (SI) Fungi [7]: > 38 | RBC Tox. (EC50), haemolytic activity ([7]; human RBC, 1 h, 37 °C, concentration giving 50% haemolysis): >971 µg/mL | Antimicrobial Activity (MIC) Gram − Pa [8]: 16 µg/mL | Antimicrobial Activity (MIC) Fungi Ca [9]: 64 µg/mL | GM of MIC Fungi [10]: 25 µg/mL | Antimicrobial Activity (MIC) Gram + Se [11]: 4 µg/mL

CCCCCCCCCCCC(=O)N[C@@H](CS)C(=O)NCC(=O)N[C@@H](CCCCN)C(=O)N[C@@H](CCCCN)C(=O)N[C@@H](Cc1c[nH]c2ccccc12)C(=O)N[C@@H](Cc1c[nH]c2ccccc12)C(=O)NCC(=O)N[C@@H](Cc1c[nH]c2ccccc12)C(=O)N[C@@H](CCCCN)C(=O)N[C@@H](CS)C(=O)N[C@@H](CCCCN)C(=O)N[C@@H](CC(C)C)C(N)=O [Peptide C12-Turg-2, C12- CGKKWWGWKC KL-NH2] (Lauroyl-CGKKWWGWKCKL-NH2)
Antimicrobial Activity (MIC) Gram − Ec (E. coli (Ec, ATCC 25922)): 16 µg/mL | GM of MIC G- [2]: 23 µg/mL | Antimicrobial Activity (MIC) Gram + Sa [3]: 16 µg/mL | Antimicrobial Activity (MIC) Fungi Rh (Rhodotorula sp. (Rh)): 32 µg/mL | Antimicrobial Activity (MIC) Fungi Ap (A. pullulans (Ap)): 32 µg/mL | Antimicrobial Activity (MIC) Gram + Cg [4]: 16 µg/mL | GM of MIC G+ [5]: 11 µg/mL | Antimicrobial Activity (MIC) Gram + Bs [6]: 8 µg/mL | GM (geometric mean of the MIC values against all bacterial strains) (all bacterial strains): 14 µg/mL | GM of MIC Tot. bact. (all bacterial strains): 14 µg/mL | Selectivity index (SI) G- [7]: 2 | Selectivity index (SI) G+ [7]: 5 | Selectivity index (SI) Fungi [7]: 1 | SI (selectivity index = EC50/GM) [7]: 4 | Antimicrobial Activity (MIC) Gram − Pa [8]: 32 µg/mL | Antimicrobial Activity (MIC) Fungi Ca [9]: 64 µg/mL | GM of MIC Fungi [10]: 40 µg/mL | Antimicrobial Activity (MIC) Gram + Se [11]: 8 µg/mL
